Results on five compounds are retold here after patent publication US4344958A, “Method of inhibiting sickling of sickle erythrocytes using substituted-2-imidazolines” (priority 1980, dated 1982).

Data set [1] concerns the target Hb-S (Homo sapiens, UniProt P68871+P69905, E7V). Kind of data set: Oxygen-Affinity Assay (whole Hb-S blood, tonometer). It is filed as cell-based. Details: key: ΔP50 in mm Hg (oxygen tension at 50% saturation, control vs treated). The following applies: 37° C., difference control vs treated, negative = toward normal Hb-S oxygen affinity, oxygen partial pressure plotted in mm Hg. The protocol: The compounds described herein were tested in an "Oxygen-Affinity Assay" to measure the ability of the compound to influence the Hb-S oxygen affinity. There is a relationship between oxygen binding and Hb-S gelation and thus a measure of oxygen affinity is an index of Hb-S aggregation within the red blood cell. Hemoglobin S polymers decrease the overall oxygen affinity. Thus a return to normal of Hb-S oxygen affinity is a measure of decreased gelation. For measurements of oxygen equilibria whole Hb-S blood was equilibrated in a tonometer at 37° C. and measurements were made in the presence of a 5 millimolar (mM) or 10 mM concentration of the test compound. The whole blood pH, oxygen tension, and blood PO2 were measured. The percentage of oxygen saturation was plotted against the partial pressure of oxygen (mm Hg). The P50 value (oxygen tension at 50% saturation) was determined for each control and treated whole blood sample and the difference (Δ P50) between the control and treated whole blood sample noted. As used herein, a negative Δ P50 represents a change toward a normal Hb-S oxygen affinity and thus is a measure of the test compound's ability to inhibit the sickling of sickle erythrocytes.

For data set [2] the following is noted: compound and its pharmaceutically-acceptable salts; cited from earlier work.
For data set [3] the following is noted: compound and its pharmaceutically-acceptable salts; cited from earlier work. This is another data set of the same source.
The conditions of data set [4]: compound and its pharmaceutically-acceptable salts; cited from earlier work. This is another data set of the same source.
For data set [5] the following is noted: compound and its pharmaceutically-acceptable salts; cited from earlier work. This is another data set of the same source.
The conditions of data set [6]: normal adults, single dosages 25 to 250 milligrams, cited from earlier work.

As for `Cl.Oc1ccc(SCC2=NCCN2)cc1Cl` [Example 3, 2-Chloro-4-(((2-imidazolin-2-yl)methyl)thio)-phenol Hydrochloride], the “Δ P50” value in data set [1] (5 mM test compound) is 0; in data set [1] (10 mM test compound), -13.0.

As for `Clc1ccc(OCC2=NCCN2)cc1Cl` [fenmetozole, 2-((3,4-Dichlorophenoxy)methyl)-2-imidazoline], the alcohol antagonist activity result in data set [2] is “alcohol antagonist activity”. Moreover, in data set [3], the “activity against minimal brain dysfunction in children” value is reported as “activity against minimal brain dysfunction in children”. Moreover, in data set [4], the barbiturate antagonist activity result is given as “barbiturate antagonist activity”. The antidepressant activity result in data set [5] is “antidepressant”.

Take `Cl.Cl.Nc1ccc(SCC2=NCCN2)cc1Cl` [Example 4, 2-(((4-Amino-3-chlorophenyl)thio)methyl)-2-imidazoline Dihydrochloride]: the “Δ P50” value in data set [1] (5 mM test compound) is -9; in data set [1] (10 mM test compound), -10.0.

For `Cl.Clc1ccc(NCC2=NCCN2)cc1Cl` [Example 1, 2-((3,4-dichloroanilino)methyl)-2-imidazoline hydrochloride], the “Δ P50” value in data set [1] (5 mM test compound) is on record as -9; in data set [1] (10 mM test compound) it was -12.6.

As for `Cl.Clc1ccc(OCC2=NCCN2)cc1Cl` [Example 2, 2-((3,4-dichlorophenoxy)methyl)-2-imidazoline hydrochloride], in data set [6] (at high dose level), the blood pressure entry was “increased blood pressure”. For the same compound, the heart rate entry in data set [6] (at high dose level) is “decreased heart rate”. Besides, in data set [6], the ill effects result is reported as “no ill effects other than a "tingling sensation" on the skin reported by some of the subjects”. Besides, the “Δ P50” value in data set [1] (5 mM test compound) is -8; in data set [1] (10 mM test compound), -8.0.
